# Laboratory results reported in patent publication US20240076299A1, “TUBERCULATIN ANALOGS AS ANTIVIRAL AGENTS” (priority 2020, published 2024).
# Where two headings read alike, the source gives them in different places.
# Tests used:
# [1] = test system: HIV; assay: microbe, parasite or virus in culture; assay type: cell-based, HIV-1
# [2] = test system: A549 cells; assay: Cytotoxicity evaluation using the SRB assay; conditions: Table 1; inhibition of cell growth of host A549 cells by 50%; triplicate
# [3] = test system: A549 cells; conditions: human, 2 days
# [4] = test system: HIV clinical strains; conditions: background statement; read-out: EC50 against broad HIV clinical strains; cited from earlier work
SMILES,EC50 [1] [µM],CC50 [2] [µM],CC50 [3] [µM],EC50 [4] [µM],EC50 ([1]; read-out: EC50) [µM]
"COc1cc2c(OC3OCC(O)(COC4OCC(O)C(O)C4O)C3OC3OCC(O)C(O)C3O)c3c(c(-c4cc5c(cc4O)OCO5)c2cc1OC)C(=O)OC3 (single isomer, unassigned) [Compound 52]",> 25,> 25,–,–,–
"COc1cc2c(OC3OCC(O)(CO)C3OC3OCC(O)C(O)C3O)c3c(c(-c4cc5c(cc4O)OCO5)c2cc1OC)C(=O)OC3 (single isomer, unassigned) [Compound 50]",23.1,–,> 25,–,–
"COc1cc2c(OC3OCC(O)(CO)C3O)c3c(c(-c4cc5c(cc4O)OCO5)c2cc1OC)C(=O)OC3 (single isomer, unassigned) [Compound 48]",> 25,–,> 25,–,–
"COc1cc2c(OC3OCC(O)(COC4OCC(O)C(O)C4O)C3OC3OCC(O)C(OC4OCC(O)(CO)C4O)C3O)c3c(c(-c4cc5c(cc4O)OCO5)c2cc1OC)C(=O)OC3 (single isomer, unassigned) [Compound 54]",> 25,–,> 25,–,–
"Cc1cn([C@H]2C[C@H](N=[N+]=[N-])[C@@H](CO)O2)c(=O)[nH]c1=O [Zidovudine (AZT), Zidovudine]",–,–,–,0.077 to 0.095,–
"COc1cc2c(O[C@@H]3OC[C@](O)(CO)[C@H]3O)c3c(c(-c4ccc5c(c4)OCO5)c2cc1OC)C(=O)OC3 [Tuberculatin (1), tuberculatin]",–,3.27,–,–,0.22
